Patent US11352330B2, “Phenoxymethyl derivatives” (Hoffmann-La Roche Inc., priority 2015, dated 2022)

Target: human ATX (Homo sapiens (Human), UniProt Q13822)
Assay: Human ATX enzyme inhibition assay (fluorescence quenching, MR121 substrate)
Type: biochemical
Conditions: human His-tagged ATX 30 nM, MR121 substrate 1 μM, 30° C.
Protocol: Human ATX Enzyme Inhibition Assay
ATX inhibition was measured by a fluorescence quenching assay using a specifically labeled substrate analogue (MR121 substrate). To obtain this MR121 substrate, BOC and TBS protected 6-amino-hexanoic acid (R)-3-({2-[3-(2-{2-[2-(2-amino-ethoxy)-ethoxy]-ethoxy}-ethoxy)-propionylamino]-ethoxy}-hydroxy-phosphoryloxy)-2-hydroxy-propyl ester (Ferguson et al., Org Lett 2006, 8 (10), 2023) was labeled with MR121 fluorophore (CAS 185308-24-1, 1-(3-carboxypropyl)-11-ethyl-1,2,3,4,8,9,10,11-octahydro-dipyrido[3,2-b:2′,3′-i]phenoxazin-13-ium) on the free amine of the ethanolamine side and then, after deprotection, subsequently with tryptophan on the side of the aminohexanoic acid.
Assay working solutions were made as follows:
Assay buffer (50 mM Tris-HCl, 140 mM NaCl, 5 mM KCl, 1 mM CaCl2, 1 mM MgCl2, 0.01% Triton-X-100, pH 8.0;
ATX solution: ATX (human His-tagged) stock solution (1.08 mg/mL in 20 mM bicine, pH 8.5, 0.15 M NaCl, 10% glycerol, 0.3% CHAPS, 0.02% NaN3), diluted to 1.4-2.5× final concentration in assay buffer;
MR121 substrate solution: MR121 substrate stock solution (800 μM MR121 substrate in DMSO), diluted to 2-5× final concentration in assay buffer.
Test compounds (10 mM stock in DMSO, 8 μL) were obtained in 384 well sample plates (Corning Costar #3655) and diluted with 8 μL DMSO. Row-wise serial dilutions were made by transferring 8 μL cpd solution to the next row up to row O. The compound and control solutions were mixed five times and 2 μL were transferred to 384 well assay plates (Corning Costar #3702). Then, 15 μL of 41.7 nM ATX solution was added (30 nM final concentration), mixed five times and then incubated for 15 minutes at 30° C. 10 μL of MR121 substrate solution was added (1 μM final concentration), mixed 30 times and then incubated for 15 minutes at 30° C.

| Structure (SMILES) | IC50 [µM] |
| --- | --- |
| Cc1cc(OCc2n[nH]c(=O)n2C)c(-c2cccc(C(=O)NCCC(=O)O)c2)cc1Cl [Example B47] | 0.082 |
| Cc1cc(OCc2n[nH]c3ncccc23)c(C(C)(C)C)cc1C#N [Example D4] | 0.009 |
| Cc1cc(OCc2n[nH]c(=O)n2C)c(-c2cc(C(=O)O)ccc2C)cc1Cl [Example B50, 3-[5-chloro-4-methyl-2-[(4-methyl-5-oxo-1H-1,2,4-triazol-3-yl)methoxy]phenyl]-4-methylbenzoic acid] | 0.173 |
| COc1ncccc1-c1cc(Cl)c(C)cc1OCc1n[nH]c(=O)n1C [Example B53] | 0.042 |
| Cc1cc(OCc2ccc(=O)[nH]n2)c(C2CC2)cc1Cl [Example C2, 3-[(4-Chloro-2-cyclopropyl-5-methylphenoxy)methyl]-1H-pyridazin-6-one] | 0.022 |
| COCC(=O)N1CCc2c(COc3cc(C)c(Cl)cc3C(C)(C)C)n[nH]c2C1 [Example E6, 1-(3-((2-tert-Butyl-4-chloro-5-methylphenoxy)methyl)-4,5-dihydro-1H-pyrazolo[3,4-c]pyridin-6(7H)-yl)-2-methoxyethanone] | 0.015 |
| CC(C)c1cc(Cl)c(F)cc1OCc1ccc(=O)[nH]n1 [Example C3, 3-[(4-chloro-5-fluoro-2-propan-2-ylphenoxy)methyl]-1H-pyridazin-6-one] | 0.004 |
| COCC(=O)N1CCc2[nH]nc(COc3cc(C)c(Cl)cc3C(C)(C)C)c2C1 [Example E3, 1-(3-((2-tert-Butyl-4-chloro-5-methylphenoxy)methyl)-6,7-dihydro-1H-pyrazolo[4,3-c]pyridin-5(4H)-yl)-2-methoxyethanone] | 80.4 |
| COc1ncccc1-c1cc(Cl)c(C)cc1OCc1n[nH]c2cnccc12 [Example D47] | 0.011 |
| CC(C)Oc1ccc(F)c(-c2cc(C#N)c(Cl)cc2OCc2n[nH]c(=O)n2C)c1 [Example B89] | 0.004 |
| Cc1cc(OCc2n[nH]c3c2CCNC3)c(C(C)(C)C)cc1Cl [Example E4, 3-((2-tert-Butyl-4-chloro-5-methylphenoxy)methyl)-4,5,6,7-tetrahydro-1H-pyrazolo[3,4-c]pyridine] | 0.019 |
| Cc1cc(OCc2n[nH]c(=O)n2C)c(-c2ncccn2)cc1Cl [Example B23, 3-[(4-Chloro-5-methyl-2-pyrimidin-2-yl-phenoxy)methyl]-4-methyl-1H-1,2,4-triazol-5-one] | 0.212 |
| Cc1cc(OCc2n[nH]c3nc(OCCO)ncc23)c(C(C)(C)C)cc1C#N [Example D38, 5-tert-Butyl-4-[[6-(2-hydroxyethoxy)-1H-pyrazolo[3,4-d]pyrimidin-3-yl]methoxy]-2-methylbenzonitrile] | 0.009 |
| Cc1cc(OCc2n[nH]c(=O)n2C)c(-c2cc(OCC3CCCO3)ccc2F)cc1Cl (stereo not drawn) [Example B74] | 0.006 |
| Cc1cc(OCc2n[nH]c(=O)n2C)c(C2CC2)cc1Cl [Example A19] | 0.015 |
| Cc1cc(OCc2n[nH]c(=O)n2C)c(-c2cc(C(=O)N(C)Cc3cccs3)ccc2F)cc1Cl [Example B68] | 0.007 |
| Cn1cncc1-c1ccc(OCc2n[nH]c(=O)n2C)c(C(C)(C)C)c1 [Example A9] | 2.61 |
| Cc1cc(OCc2n[nH]c3ccccc23)c(C(C)C)cc1Cl [Example D2, 3-[(4-Chloro-5-methyl-2-propan-2-ylphenoxy)methyl]-1H-indazole] | 0.014 |
| Cc1cc(OCc2n[nH]c(=O)n2C)c(-c2ccno2)cc1Cl [Example B25] | 0.02 |
| Cc1cc(OCc2n[nH]c(=O)n2C)c(-c2cc(C(=O)N(C)C)ccc2F)cc1Cl [Example B38] | 0.008 |
| Cc1cc(OCc2n[nH]c(=O)n2C)c(C(C)(C)C)cc1Cl [Example A1, 3-[(2-tert-Butyl-4-chloro-5-methylphenoxy)methyl]-4-methyl-1H-1,2,4-triazol-5-one] | 0.002 |
| Cn1c(COc2cc(NS(C)(=O)=O)c(Cl)cc2C2CC2)n[nH]c1=O [Example A23] | > 27 |
| Cn1c(COc2ccc(-c3ncco3)cc2C(C)(C)C)n[nH]c1=O [Example A7] | 0.013 |
| N#Cc1cc(-c2cc(OC3CC3)ccc2F)c(OCc2n[nH]c3ncccc23)cc1Cl [Example D53] | 0.008 |
| COc1ccc(C(F)(F)F)cc1-c1cc(Cl)c(C)cc1OCc1n[nH]c(=O)n1C [Example B59] | 0.025 |
| Cn1c(COc2cc(Cl)c(C#N)cc2-c2cccc(F)c2)n[nH]c1=O [Example B85] | 0.021 |
| Cc1cc(OCc2n[nH]c(=O)n2C)c(-c2cnccn2)cc1Cl [Example B22, 3-[(4-Chloro-5-methyl-2-pyrazin-2-ylphenoxy)methyl]-4-methyl-1H-1,2,4-triazol-5-one] | 0.227 |

| Structure (SMILES) | IC50 [µM] |
| --- | --- |
| Cc1cc(OCc2cc(C(=O)N3CCCC3)[nH]n2)c(C(C)(C)C)cc1Cl [Example F4, (3-((2-(tert-Butyl)-4-chloro-5-methylphenoxy)methyl)-1H-pyrazol-5-yl)(pyrrolidin-1-yl)methanone] | 0.008 |
| Cn1c(COc2cc(Cl)c(C#N)cc2-c2cc(OC3CC3)ccc2F)n[nH]c1=O [Example B95] | 0.006 |
| Cc1cc(OCc2n[nH]c(=O)n2C)c(-c2c(F)ccc3c2oc(=O)n3C)cc1Cl [Example B77] | 0.015 |
| Cc1cc(OCc2ccc(=O)[nH]n2)c(C2CCC2)cc1Cl [Example C5, 3-[(4-chloro-2-cyclobutyl-5-methylphenoxy)methyl]-1H-pyridazin-6-one] | 0.001 |
| Cc1cc(OCc2n[nH]c(=O)n2C)c(-c2cc(C(N)=O)ccc2OC(F)(F)F)cc1Cl [Example B52] | 0.012 |
| Cc1nnc(-c2ccc(OCc3n[nH]c(=O)n3C)c(C(C)(C)C)c2)o1 [Example A10] | 0.104 |
| COC(=O)c1ccc(C)c(-c2cc(Cl)c(C)cc2OCc2n[nH]c(=O)n2C)c1 [Example B49, Methyl 3-[5-chloro-4-methyl-2-[(4-methyl-5-oxo-1H-1,2,4-triazol-3-yl)methoxy]phenyl]-4-methylbenzoate] | 0.008 |
| Cc1cc(OCc2n[nH]c3cccnc23)c(-c2cc(C(=O)N(C)C)ccc2F)cc1Cl [Example D28] | 0.098 |
| Cc1cc(OCc2n[nH]c(=O)n2C)c(-c2ccccc2Cl)cc1Cl [Example B2] | 0.001 |
| COCCNC(=O)c1cccc(-c2cc(Cl)c(C)cc2OCc2n[nH]c3ncccc23)c1 [Example D16] | 0.018 |
| Cn1c(COc2cc(Cl)c(C#N)cc2-c2cc(OCC3CCCO3)ccc2F)n[nH]c1=O (stereo not drawn) [Example B87] | 0.005 |
| Cc1cc(OCc2n[nH]c(=O)n2C)c(-c2cccc(C(=O)NC3CCCCC3)c2)cc1Cl [Example B9] | 0.012 |
| COc1ncccc1-c1cc(C#N)c(Cl)cc1OCc1n[nH]c(=O)n1C [Example B54] | 0.029 |
| Cc1cc(OCc2n[nH]c3ncccc23)c(C(C)(C)C)cc1Cl [Example D3, 3-[(2-tert-Butyl-4-chloro-5-methylphenoxy)methyl]-1H-pyrazolo[3,4-b]pyridine] | 0.004 |
| Cc1cc(OCc2n[nH]c3ncccc23)c(-c2cc(C(=O)N3CCOCC3)ccc2F)cc1Cl [Example D22] | 0.01 |
| Cc1cc(OCc2n[nH]c(=O)n2C)c(-c2cccc(C(=O)O)c2)cc1Cl [Example B43, 3-[5-Chloro-4-methyl-2-[(4-methyl-5-oxo-1H-1,2,4-triazol-3-yl)methoxy]phenyl]benzoic acid] | 1.1 |
| Cc1cc(OCc2n[nH]c(=O)n2C)c(C(C)(C)C)cc1C#N [Example A16] | 0.005 |
| COc1cccc(-c2cc(C#N)c(Cl)cc2OCc2n[nH]c(=O)n2C)c1F [Example B88] | 0.001 |
| Cn1c(COc2cc(F)c(Cl)cc2C(C)(C)C)n[nH]c1=O [Example A2] | 0.01 |
| Cn1c(COc2cc(C#N)c(Cl)cc2C(C)(C)C)n[nH]c1=O [Example A34, 4-tert-Butyl-2-chloro-5-[(4-methyl-5-oxo-1H-1,2,4-triazol-3-yl)methoxy]benzonitrile] | 0.028 |
| COc1ncccc1-c1cc(Cl)c(C)cc1OCc1n[nH]c2ncccc12 [Example D20] | 0.022 |
| Cc1cc(OCc2n[nH]c3ncccc23)c(-c2cc(C(=O)N3CCN(C)C(=O)C3)ccc2F)cc1Cl [Example D39] | 0.008 |
| Cc1cc(OCc2n[nH]c(=O)n2C)c(-c2cncn2C)cc1Cl [Example B27, 3-[[4-Chloro-5-methyl-2-(3-methylimidazol-4-yl)phenoxy]methyl]-4-methyl-1H-1,2,4-triazol-5-one] | 3.72 |
| COc1cccc(-c2cc(Cl)c(C)cc2OCc2n[nH]c(=O)n2C)n1 [Example B21] | 0.104 |
| Cn1c(COc2ccc(C#N)cc2-c2ccccc2)n[nH]c1=O [Example B16] | 0.025 |
| Cc1cc(OCc2n[nH]c3cccnc23)c(C(C)(C)C)cc1Cl [Example D23] | 0.021 |
| N#Cc1cc(-c2cc(OC3CC3)ccc2F)c(OCc2n[nH]c3cnccc23)cc1Cl [Example D51] | 0.069 |
